From patent publication US20230210831A1, “CHRONIC KIDNEY DISEASE TREATMENT OR PREVENTION METHOD” (Japan Tobacco Inc., priority 2019, published 2023)

What was measured:
Format in all cases: cell-based
[1] = system: Salmonella typhimurium TA1535; assay: Ames test (reverse mutation test), TA1535
Method: (§1) The solvent used herein was dimethyl sulfoxide (DMSO, 100 µL/plate).
(§2) The mixtures were preincubated at 37° C. for 20 minutes while shaking. […] Two plates per treatment were used.

[2] = system: Salmonella typhimurium TA98; assay: Ames test (reverse mutation test), TA98; details: for Number of revertant colonies TA98: S9 Mix -; for Number of revertant colonies: TA98, +S9 mix
Method: as §1, §2

[3] = system: Salmonella typhimurium TA1537; assay: Ames test (reverse mutation test), TA1537; details: for Number of revertant colonies TA1537: S9 Mix -; for Number of revertant colonies: TA1537, +S9 mix
Method: as §1, §2

[4] = system: Salmonella typhimurium TA100; assay: Ames test (reverse mutation test), TA100; details: for Number of revertant colonies TA100: S9 Mix -; for Number of revertant colonies: TA100, +S9 mix
Method: as §1, §2

[5] = system: Escherichia coli WP2uvrA; assay: Ames test (reverse mutation test), WP2uvrA; details: for Number of revertant colonies WP2uvrA: S9 Mix -; for Number of revertant colonies: WP2uvrA, +S9 mix
Method: as §1, §2

CC(C)(OCc1cc(F)cc(-c2cc(N)nn2-c2ccc(F)cc2)c1)C(F)(F)F [Metabolite D]
Number of revertant colonies TA1535 ([1]; S9 Mix -, dose 1667 µg/plate): 6 | Number of revertant colonies ([1]; TA1535, +S9 mix, 1667 µg/plate): 7 | Number of revertant colonies TA98 ([2]; dose 2.3 µg/plate): 27 | Number of revertant colonies TA98 ([2]; dose 6.9 µg/plate): 22 | Number of revertant colonies TA98 ([2]; dose 21 µg/plate): 23 | Number of revertant colonies TA98 ([2]; dose 62 µg/plate): 25 | Number of revertant colonies TA98 ([2]; dose 185 µg/plate): 32 | Number of revertant colonies TA98 ([2]; dose 556 µg/plate): 21 | Number of revertant colonies TA98 ([2]; dose 1667 µg/plate): 23 | Number of revertant colonies TA98 ([2]; dose 5000 µg/plate): 21 | Number of revertant colonies ([2]; 2.3 µg/plate): 39 | Number of revertant colonies ([2]; 6.9 µg/plate): 42 | Number of revertant colonies ([2]; 21 µg/plate): 52 | Number of revertant colonies ([2]; 62 µg/plate): 47 | Number of revertant colonies ([2]; 185 µg/plate): 49 | Number of revertant colonies ([2]; 556 µg/plate): 51 | Number of revertant colonies ([2]; 1667 µg/plate): 57 | Number of revertant colonies ([2]; 5000 µg/plate): 88 | potential to induce reverse mutations ([2]; TA98 with S9 mix): showed potential to induce reverse mutations | Number of revertant colonies TA1537 ([3]; dose 2.3 µg/plate): 11 | Number of revertant colonies TA1537 ([3]; dose 6.9 µg/plate): 13 | Number of revertant colonies TA1537 ([3]; dose 21 µg/plate): 11 | Number of revertant colonies TA1537 ([3]; dose 62 µg/plate): 7 | Number of revertant colonies TA1537 ([3]; dose 185 µg/plate): 6 | Number of revertant colonies TA1537 ([3]; dose 556 µg/plate): 7 | Number of revertant colonies TA1537 ([3]; dose 1667 µg/plate): 6 | Number of revertant colonies TA1537 ([3]; dose 5000 µg/plate): 8 | Number of revertant colonies ([3]; 2.3 µg/plate): 14 | Number of revertant colonies ([3]; 6.9 µg/plate): 20 | Number of revertant colonies ([3]; 21 µg/plate): 13 | Number of revertant colonies ([3]; 62 µg/plate): 18 | Number of revertant colonies ([3]; 185 µg/plate): 15 | Number of revertant colonies ([3]; 556 µg/plate): 15 | Number of revertant colonies ([3]; 1667 µg/plate): 19 | Number of revertant colonies ([3]; 5000 µg/plate): 24 | potential to induce reverse mutations ([3]; TA1537 with S9 mix): showed potential to induce reverse mutations | Number of revertant colonies TA100 ([4]; dose 2.3 µg/plate): 99 | Number of revertant colonies TA100 ([4]; dose 6.9 µg/plate): 98 | Number of revertant colonies TA100 ([4]; dose 21 µg/plate): 71 | Number of revertant colonies TA100 ([4]; dose 62 µg/plate): 96 | Number of revertant colonies TA100 ([4]; dose 185 µg/plate): 85 | Number of revertant colonies TA100 ([4]; dose 556 µg/plate): 86 | Number of revertant colonies TA100 ([4]; dose 1667 µg/plate): 69 | Number of revertant colonies TA100 ([4]; dose 5000 µg/plate): 82 | Number of revertant colonies ([4]; 2.3 µg/plate): 139 | Number of revertant colonies ([4]; 6.9 µg/plate): 203 | Number of revertant colonies ([4]; 21 µg/plate): 237 | Number of revertant colonies ([4]; 62 µg/plate): 185 | Number of revertant colonies ([4]; 185 µg/plate): 151 | Number of revertant colonies ([4]; 556 µg/plate): 119 | Number of revertant colonies ([4]; 1667 µg/plate): 100 | Number of revertant colonies ([4]; 5000 µg/plate): 98 | Number of revertant colonies WP2uvrA ([5]; dose 2.3 µg/plate): 25 | Number of revertant colonies WP2uvrA ([5]; dose 6.9 µg/plate): 27 | Number of revertant colonies WP2uvrA ([5]; dose 21 µg/plate): 22 | Number of revertant colonies WP2uvrA ([5]; dose 62 µg/plate): 21 | Number of revertant colonies WP2uvrA ([5]; dose 185 µg/plate): 22 | Number of revertant colonies WP2uvrA ([5]; dose 556 µg/plate): 16 | Number of revertant colonies WP2uvrA ([5]; dose 1667 µg/plate): 18 | Number of revertant colonies WP2uvrA ([5]; dose 5000 µg/plate): 20 | Number of revertant colonies ([5]; 2.3 µg/plate): 31 | Number of revertant colonies ([5]; 6.9 µg/plate): 18 | Number of revertant colonies ([5]; 21 µg/plate): 24 | Number of revertant colonies ([5]; 62 µg/plate): 18 | Number of revertant colonies ([5]; 185 µg/plate): 23 | Number of revertant colonies ([5]; 556 µg/plate): 32 | Number of revertant colonies ([5]; 1667 µg/plate): 28 | Number of revertant colonies ([5]; 5000 µg/plate): 28
